Here are results for five compounds from ChEMBL document CHEMBL3867439, “Affinity Crystallography: A New Approach to Extracting High-Affinity Enzyme Inhibitors from Natural Extracts” (J Nat Prod, 2016).

The structures appear in SMILES notation.

The first assay addresses T1, Cathepsin K (Homo sapiens, UniProt P43235).
T1 sequence (P43235 whole entry): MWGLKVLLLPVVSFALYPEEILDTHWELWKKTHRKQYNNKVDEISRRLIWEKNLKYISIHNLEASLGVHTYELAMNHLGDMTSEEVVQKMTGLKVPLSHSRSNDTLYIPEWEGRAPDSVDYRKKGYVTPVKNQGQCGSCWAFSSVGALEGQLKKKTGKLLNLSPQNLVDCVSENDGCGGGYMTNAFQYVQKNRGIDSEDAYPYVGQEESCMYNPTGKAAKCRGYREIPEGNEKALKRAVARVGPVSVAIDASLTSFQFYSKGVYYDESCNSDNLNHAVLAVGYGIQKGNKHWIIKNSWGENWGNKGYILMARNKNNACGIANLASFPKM
As to the kind of experiment: Competitive inhibition of human recombinant cathepsin K using Z-FR-MCA fluorogenic substrate by Dixon plot analysis.
A word on the Ki: it is a measure of affinity in units of concentration, obtained from inhibition or displacement. Regarding `CC(C)[C@H](NC(=O)[C@H](CCCNC(=N)N)NC(=O)N[C@@H](Cc1ccccc1)C(=O)O)C(=O)NC1=CN(C(=N)N)CCC1`, the Ki worked out at 0.393 µM. With `CC(C)[C@H](NC(=O)[C@H](CCCNC(=N)N)NC(=O)N[C@@H](Cc1ccccc1)C(=O)O)C(=O)NC1CCCN(C(=N)N)C1O` (stereo in doubt; form 2), the Ki is 0.069 µM.

`CC(C)[C@H](NC(=O)[C@H](CCCNC(=N)N)NC(=O)N[C@@H](Cc1ccccc1)C(=O)O)C(=O)NC1CCCN(C(=N)N)C1O` (stereo in doubt; form 1): the Ki turned out to be 0.105 µM. On the same count and under the same terms, as for `CC(C)[C@H](NC(=O)[C@H](CCCNC(=N)N)NC(=O)N[C@@H](Cc1ccccc1)C(=O)O)C(=O)NC1CCCN(C(=N)N)C1=O` (stereo partly specified), the figure is 0.163 µM.

A further assay addresses T1, Cathepsin K. As to the kind of experiment: Competitive inhibition of human recombinant cathepsin K using Z-FR-MCA fluorogenic substrate by Handerson plot analysis.
As for `CC(C)[C@H](NC(=O)[C@H](CCCNC(=N)N)NC(=O)N[C@@H](Cc1ccccc1)C(=O)O)C(=O)NC1CCCN(C(=N)N)C1O` (stereo in doubt; form 2), the Ki came out at 0.041 µM. Turning to `CC(C)[C@H](NC(=O)[C@H](CO)NC(=O)NCCCCNC(=N)N)C(=O)N[C@H]1CCCN(C(=N)N)C1O` (stereo partly specified), the Ki was 0.011 µM.
